# From patent US9267129B2, “Compositions and methods for conferring herbicide resistance” (BEN-GURION UNIVERSITY OF THE NEGEV RESEARCH AND DEVELOPMENT …, priority 2011, dated 2016)
# pKi: −log10 of the molar value.
# How the values were obtained:
# [1] = target: T1, PiAHAS wild-type (Parietochloris incisa (Lobosphaera incisa), UniProt I3VJH2); assay: PiAHAS in vitro enzyme assay, inhibition by SMM (wild type); format: biochemical; conditions: wild-type AHAS; pyruvate 100 mM; 37° C., pH 7.6
# T1 sequence (I3VJH2 1-707 D350G/R415C): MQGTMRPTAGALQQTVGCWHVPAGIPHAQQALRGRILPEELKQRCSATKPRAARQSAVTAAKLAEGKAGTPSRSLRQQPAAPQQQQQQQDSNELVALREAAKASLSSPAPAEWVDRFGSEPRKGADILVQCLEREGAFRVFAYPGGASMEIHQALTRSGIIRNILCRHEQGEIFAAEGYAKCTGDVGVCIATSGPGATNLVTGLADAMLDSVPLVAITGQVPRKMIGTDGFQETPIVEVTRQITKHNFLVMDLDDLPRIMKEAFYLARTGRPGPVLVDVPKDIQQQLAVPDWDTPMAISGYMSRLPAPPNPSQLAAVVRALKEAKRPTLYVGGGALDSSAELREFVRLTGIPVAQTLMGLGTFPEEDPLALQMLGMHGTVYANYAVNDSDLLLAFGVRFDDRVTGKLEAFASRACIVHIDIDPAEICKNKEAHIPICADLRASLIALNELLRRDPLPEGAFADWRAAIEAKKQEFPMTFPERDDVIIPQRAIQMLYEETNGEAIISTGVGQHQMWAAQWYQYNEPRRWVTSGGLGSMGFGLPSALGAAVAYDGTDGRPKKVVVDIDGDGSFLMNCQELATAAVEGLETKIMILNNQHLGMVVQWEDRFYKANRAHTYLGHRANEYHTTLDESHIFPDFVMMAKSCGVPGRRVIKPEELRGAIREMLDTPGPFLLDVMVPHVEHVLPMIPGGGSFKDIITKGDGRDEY
# Experimental: (§1) To overexpress the hexahistidine (6xHis)-tagged PiAHAS genes in E. coli strain JM109, plasmids pQE-WT and pQE-MUT were used. These plasmids were constructed by inserting the BamHI-SalI fragment containing the cloned PiAHAS wt and mutant genes into plasmid pQE30 (Qiagen, Hilden, Germany). These plasmids express PiAHAS fused at its N-terminus to the pQE30 6xHis leader. pQE-WT and pQE-MUT were transformed into E. coli for expression. […] The AHAS catalytic activity was determined as previously described (Bar-Ilan A et al. Binding and activation of thiamin diphosphate in acetohydroxyacid synthase. Biochemistry (N.Y.) 2001, 40, 11946-11954). […] Km for pyruvate and Ki for SMM were determined by varying the concentration of the factor in question. Protein concentration was determined by the dye-binding method of Bradford (Bradford MM. A rapid and sensitive method for the quantitation of microgram quantities of protein utilizing the principle of protein-dye binding. Anal. Biochem. 1976, 72, 248-254), with bovine serum albumin as standard. […]
# (§2) The Ki was determined to be >30×106, 7 orders of magnitude higher than that of the wild type.
# [2] = target: T2, PiAHAS wild-type (Parietochloris incisa (Lobosphaera incisa), UniProt I3VJH2, D350G/R415C); assay: as above; format: biochemical; conditions: wild type; very low concentration of SMM
# T2 sequence (I3VJH2 1-707 D350G/R415C): T1 sequence (I3VJH2 1-707 D350G/R415C)
# Experimental: as §1, §2
# [3] = target: T3, PiAHAS mutant W605S (Lobosphaera incisa, UniProt I3VJH2, W604S); assay: PiAHAS in vitro enzyme assay, inhibition by SMM (mutant); format: biochemical, Parietochloris incisa; conditions: even at high concentrations of 200 μM
# T3 sequence (I3VJH2 with tags, fused parts or gaps W604S): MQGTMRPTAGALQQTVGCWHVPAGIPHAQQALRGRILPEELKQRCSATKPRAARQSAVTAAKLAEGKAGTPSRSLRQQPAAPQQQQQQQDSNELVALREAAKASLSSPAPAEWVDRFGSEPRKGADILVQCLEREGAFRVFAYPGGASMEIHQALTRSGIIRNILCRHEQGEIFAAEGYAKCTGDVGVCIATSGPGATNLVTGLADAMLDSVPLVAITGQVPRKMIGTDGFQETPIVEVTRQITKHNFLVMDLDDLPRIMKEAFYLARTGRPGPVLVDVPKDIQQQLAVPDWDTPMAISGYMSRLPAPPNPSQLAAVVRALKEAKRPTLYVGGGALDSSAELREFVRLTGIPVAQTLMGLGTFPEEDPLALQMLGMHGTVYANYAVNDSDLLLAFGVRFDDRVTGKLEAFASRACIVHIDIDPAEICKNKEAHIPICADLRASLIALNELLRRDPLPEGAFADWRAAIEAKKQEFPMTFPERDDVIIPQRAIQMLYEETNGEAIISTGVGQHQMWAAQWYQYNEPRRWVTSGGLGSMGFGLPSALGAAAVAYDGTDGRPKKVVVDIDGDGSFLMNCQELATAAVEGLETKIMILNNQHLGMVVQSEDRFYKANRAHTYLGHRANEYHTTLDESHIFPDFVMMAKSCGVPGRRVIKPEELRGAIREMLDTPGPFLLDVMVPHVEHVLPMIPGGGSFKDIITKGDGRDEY
# Experimental: as §1, §2
smiles,measurement,setting,value
"COC(=O)c1ccccc1S(=O)(=O)NC(=O)Nc1nc(C)cc(C)n1 [SMM, sulfometuron methyl]",pKi,[1],6.82
same,inhibition of enzyme by SMM,[2],strongly inhibited
same,inhibition of enzyme by SMM,[3],strong resistance
